Series [1] deals with T1, Fatty-acid amide hydrolase 1 (Homo sapiens, UniProt O00519).
T1 sequence (O00519 whole entry): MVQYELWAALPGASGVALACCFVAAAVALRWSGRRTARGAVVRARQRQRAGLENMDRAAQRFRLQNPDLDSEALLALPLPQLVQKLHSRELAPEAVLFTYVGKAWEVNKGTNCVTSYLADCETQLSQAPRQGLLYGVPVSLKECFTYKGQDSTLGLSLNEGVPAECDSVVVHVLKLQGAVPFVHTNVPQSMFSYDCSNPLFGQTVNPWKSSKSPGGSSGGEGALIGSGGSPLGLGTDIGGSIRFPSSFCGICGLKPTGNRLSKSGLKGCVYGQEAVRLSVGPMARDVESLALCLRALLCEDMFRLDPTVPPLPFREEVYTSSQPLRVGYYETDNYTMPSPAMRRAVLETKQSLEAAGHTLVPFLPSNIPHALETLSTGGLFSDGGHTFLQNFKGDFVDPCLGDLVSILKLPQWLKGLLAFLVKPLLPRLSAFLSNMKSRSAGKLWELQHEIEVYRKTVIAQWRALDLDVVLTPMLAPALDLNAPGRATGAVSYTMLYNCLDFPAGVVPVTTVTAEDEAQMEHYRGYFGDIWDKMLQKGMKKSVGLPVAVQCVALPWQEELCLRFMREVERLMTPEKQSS
Kind of series: Inhibition of human FAAH expressed in baculovirus infected Sf9 cells using N-(6-methoxypyridin-3-yl)octanamide as substrate measured for 15 mins by fluorescence based assay.

Series [2] relates to RBL-2H3. Description: Antiallergic activity in rat RBL2H3 cells assessed as inhibition of DNP-HSA-mediated degranulation by measuring decrease in beta-hexosaminidase activity preincubated for 30 mins followed by DNP-HSA stimulation and measured after 30 mins by 4-nitrophenyl 2-acetamido-2-deoxy-beta-D-glucopyranoside substrate based assay. Format: functional, cell-based.
The subject of series [3] is Mus musculus. Kind of series: Antiallergic activity in BALB/c mouse assessed as reduction in anti-DNP-IgE-mediated passive cutaneous anaphylaxis at 1000 mg/kg, po administered once daily for 5 days followed by anti-DNP-IgE stimulation on day 4 and subsequent DNP-HSA challenge on day 5 post 1 hr compound dose and measured after 30 mins by Evans blue dye-based spectrophotometric method relative to control. Format: functional. Set-up: scale not given: the % may be the effect or the level left.

Series [4] addresses T1, Fatty-acid amide hydrolase 1. Kind of series: Substrate activity at human FAAH expressed in baculovirus infected Sf9 cells assessed as docosahexaenoic acid formation incubated for 60 mins by HPLC analysis. The conditions noted are these: sf9, 1 h. Format: ADME.
Series [5] relates to RBL-2H3. Description: Antiallergic activity in rat RBL2H3 cells assessed as inhibition of DNP-HSA-mediated degranulation by measuring decrease in beta-hexosaminidase activity incubated for 30 mins prior to FAAH inhibitor URB597 addition further incubated for 30 mins followed by DNP-HSA stimulation and measured after 30 mins by 4-nitrophenyl 2-acetamido-2-deoxy-beta-D-glucopyranoside substrate based assay. Format: functional, cell-based.

Series [6] relates to RBL-2H3. Kind of series: Antiallergic activity in rat RBL2H3 cells assessed as inhibition of DNP-HSA-mediated degranulation by measuring decrease in beta-hexosaminidase activity incubated for 30 mins prior to CB2 antagonist AM630 addition further incubated for 30 mins followed by DNP-HSA stimulation and measured after 30 mins by 4-nitrophenyl 2-acetamido-2-deoxy-beta-D-glucopyranoside substrate based assay. Format: functional, cell-based.

For series [7], the system named is RBL-2H3. Description: Ratio of IC50 for antiallergic activity in rat RBL2H3 cells assessed as inhibition of DNP-HSA-mediated degranulation by measuring decrease in beta-hexosaminidase activity to IC50 for antiallergic activity in rat RBL2H3 cells assessed as inhibition of DNP-HSA-mediated degranulation by measuring decrease in beta-hexosaminidase activity in presence of FAAH inhibitor URB597. Format: functional.

Series [8] deals with Mus musculus. Kind of series: Antiallergic activity in BALB/c mouse assessed as reduction in anti-DNP-IgE-mediated passive cutaneous anaphylaxis at 50 mg/kg, po administered once daily for 5 days followed by anti-DNP-IgE stimulation on day 4 and subsequent DNP-HSA challenge on day 5 post 1 hr compound dose and measured after 30 mins by Evans blue dye-based spectrophotometric method relative to control. Format: functional. Further details: scale not given: the % may be the effect or the level left.

The structures appear in SMILES notation.

This note sets out measurements from ChEMBL document CHEMBL4414618, “Structure-Activity Relationships of Fish Oil Derivatives with Antiallergic Activity in Vitro and in Vivo” (J Med Chem, 2019).

By IC50 is commonly meant the concentration that gives 50% inhibition.

Take `CC/C=C\C/C=C\C/C=C\C/C=C\C/C=C\C/C=C\CCC(=O)NCCO`: the IC50 in series [1] was over 50 µM; in the series with RBL-2H3 [2] it was 25 µM; with RBL-2H3 [5], 7.6 µM; with RBL-2H3 [6] it was 25 µM. The Activity in the series with Mus musculus [3] was found to be 31%. In series [4], the Drug metabolism result was “Metabolite_Detected”. Further, the “Ratio IC50” value in the series on RBL-2H3 [7] is listed as 3.
`CC(C)(C(=O)O)c1ccc(C(O)CCCN2CCC(C(O)(c3ccccc3)c3ccccc3)CC2)cc1` (stereo not drawn) [FEXOFENADINE]: the Activity in the series on Mus musculus [8] is 39%.
